pIC50: −log10 of the molar value.
Tests used:
PD-1/PD-L1 = PD-1/PD-L1 (Homo sapiens (Human), UniProt Q9NZQ7); assay: Homogeneous Time-Resolved Fluorescence (HTRF) PD-1/PD-L1 binding assay; conditions: recombinant human PD-1 and PD-L1
How it was run: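 Human PD-1 (25-167, Fc-tagged; 3 nM) and PD-L1 (19-238, His-tagged; 10 nM) were preincubated 40 min with inhibitors in PBS pH 7.4, 0.05% Tween-20, 0.1% BSA, 1% DMSO, at 25 °C. Eu-anti-human IgG (1 nM) and anti-His-APC (20 nM) were added for 60 min. The 665/620 nm HTRF ratio gave IC50 by curve fitting.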

[1] = In vivo pharmacokinetics in monkeys; conditions: cynomolgus monkey, cassette dosing; for clearance / half-life / Vd / AUC(0-inf) / Cmax: both sexes, plasma; for clearance / half-life / Vd: 1.0 mg/kg IV; for Vd: read-out: Vss; for AUC(0-inf) / Cmax / F: 3.0 mg/kg PO
Experimental: (§1) For in vivo pharmacokinetic experiments, test compounds were administered to male Sprague Dawley rats or male and female Cynomolgus monkeys intravenously or via oral gavage. For intravenous (IV) dosing, test compounds were dosed at 0.5 to 1 mg/kg using a formulation of 10% dimethylacetamide (DMAC) in acidified saline via IV bolus for rat and 5 min or 10 min IV infusion for monkey. For oral (PO) dosing, test compounds were dosed at 1.0 to 3.0 mg/kg using 5% DMAC in 0.5% methylcellulose in citrate buffer (pH 3.5). Blood samples were collected at predose and various time points up to 24 hours postdose. All blood samples were collected using EDTA as the anticoagulant and centrifuged to obtain plasma samples. The plasma concentrations of test compounds were determined by LC-MS methods. The measured plasma concentrations were used to calculate PK parameters by standard noncompartmental methods using Phoenix® WinNonlin software program (version 7.0, Pharsight Corporation).
(§2) In rats and monkeys, cassette dosing of test compounds were conducted to obtain preliminary PK parameters.

[2] = In vivo pharmacokinetics in rats; design: species or system Sprague Dawley rats; conditions: rat, cassette dosing; for clearance / half-life / Vd / Cmax / AUC(0-inf): male, Sprague-Dawley, plasma; for clearance / half-life / Vd: 1.0 mg/kg IV; for Vd: read-out: Vss; for Cmax / AUC(0-inf) / F: 3.0 mg/kg PO; for AUC(0-inf): read-out: AUC0-inf
Experimental: as §1, §2

[3] = system: U2OS/PD-L1 cells and Jurkat-PD-1-SHP cells; assay: Src homology region 2 domain-containing phosphatase (SHP) assay; assay type: cell-based; conditions: Homo sapiens, U2OS; PathHunter chemiluminescence, 2 hours
How it was run: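 U2OS/PD-L1 cells and Jurkat-PD-1-SHP cells, 5000 each, were co-incubated with compound for 2 h at 37 °C in RPMI with 1% FBS. PathHunter enzyme-fragment complementation chemiluminescence reported PD-1/SHP recruitment. IC50 was fitted from percent of DMSO-control activity versus log concentration.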

PD-L1 = PD-L1 (Homo sapiens (Human), UniProt Q9NZQ7); assay: PD-L1 whole blood internalization assay; assay type: cell-based; conditions: PD-L1 internalization in human whole blood, CD14+ cells, interferon γ, 24 hour
Sequence of PD-L1 (Q9NZQ7 19-290): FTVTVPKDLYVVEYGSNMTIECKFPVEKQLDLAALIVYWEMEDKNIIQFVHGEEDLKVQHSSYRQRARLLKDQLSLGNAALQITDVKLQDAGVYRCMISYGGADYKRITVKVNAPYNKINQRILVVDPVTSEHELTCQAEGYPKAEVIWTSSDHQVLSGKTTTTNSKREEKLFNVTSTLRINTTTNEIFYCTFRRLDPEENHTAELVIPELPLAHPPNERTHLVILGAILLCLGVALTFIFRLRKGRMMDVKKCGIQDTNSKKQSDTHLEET

Sequence of PD-1/PD-L1 (Q9NZQ7 19-238): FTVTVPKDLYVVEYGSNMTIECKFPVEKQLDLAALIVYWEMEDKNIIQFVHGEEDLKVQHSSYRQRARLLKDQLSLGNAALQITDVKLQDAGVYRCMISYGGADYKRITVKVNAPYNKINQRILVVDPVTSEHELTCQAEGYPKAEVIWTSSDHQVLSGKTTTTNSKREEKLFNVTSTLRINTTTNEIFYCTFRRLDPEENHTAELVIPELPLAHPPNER

| pIC50 (PD-1/PD-L1) | clearance [1] [mL/min/kg] | half-life [1] [h] | Vd [1] [L/kg] | AUC(0-inf) [1] [µM·h] | Cmax [1] [nM] | F [1] [%] | clearance [2] [mL/min/kg] | half-life [2] [h] | Vd [2] [L/kg] | Cmax [2] [nM] | AUC(0-inf) [2] [µM·h] | F [2] [%] | pIC50 [3] | pIC50 (PD-L1) | Structure (SMILES) |
| --- | --- | --- | --- | --- | --- | --- | --- | --- | --- | --- | --- | --- | --- | --- | --- |
| 8.66 | 4.25 | 6.35 | 1.01 | 8.24 | 794 | 59 | 6.15 | 4.4 | 1.75 | 166 | 1.4 | 14 | 8.52 | 8.10 | Cc1c(Nc2nc(C(F)F)nc3cc(CN4CC[C@@H](O)C4)cnc23)cccc1-c1cccc(NC(=O)c2nc3c(n2C)CCN(CCC24CCC(C(=O)O)(CC2)C4)C3)c1Cl [Example 1, (R)-4-(2-(2-((2-chloro-3′-((2-(difluoromethyl)-7-((3-hydroxypyrrolidin-1-yl)methyl)pyrido[3,2-d]pyrimidin-4-yl)amino)-2′-methyl-[1,1′-biphenyl]-3-yl)carbamoyl)-1-methyl-1,4,6,7-tetrahydro-5H-imidazo[4,5-c]pyridin-5-yl)ethyl)bicyclo[2.2.1]heptane-1-carboxylic Acid] |
| 8.82 | 4.78 | 6.23 | 1.36 | 6.84 | 579 | 57 | 7.85 | 4.4 | 2.63 | 111 | 1.07 | 14 | 8.41 | 8.10 | Cc1c(Nc2nc(C(F)F)nc3cc(CN4CC[C@@](C)(O)C4)cnc23)cccc1-c1cccc(NC(=O)c2nc3c(n2C)CCN(CCC24CCC(C(=O)O)(CC2)C4)C3)c1Cl [Example 2, (R)-4-(2-(2-((2-chloro-3′-((2-(difluoromethyl)-7-((3-hydroxy-3-methylpyrrolidin-1-yl)methyl)pyrido[3,2-d]pyrimidin-4-yl)amino)-2′-methyl-[1,1′-biphenyl]-3-yl)carbamoyl)-1-methyl-1,4,6,7-tetrahydro-5H-imidazo[4,5-c]pyridin-5-yl)ethyl)bicyclo[2.2.1]heptane-1-carboxylic Acid] |
| 8.68 | 4.93 | 8.48 | 1.14 | 11.1 | 1300 | 89 | 6.93 | 3.9 | 1.63 | 241 | 1.65 | 19 | 8.40 | 7.22 | Cc1c(NC(=O)c2nc3c(n2C)CCN(CCC24CCC(C(=O)O)(CC2)C4)C3)cccc1-c1cccc(Nc2nc(C(F)F)nc3cc(CN4CC[C@@H](O)C4)cnc23)c1C [Example 5, (R)-4-(2-(2-((3′-((2-(difluoromethyl)-7-((3-hydroxypyrrolidin-1-yl)methyl)pyrido[3,2-d]pyrimidin-4-yl)amino)-2,2′-dimethyl-[1,1′-biphenyl]-3-yl)carbamoyl)-1-methyl-1,4,6,7-tetrahydro-5H-imidazo[4,5-c]pyridin-5-yl)ethyl)bicyclo[2.2.1]heptane-1-carboxylic Acid] |
